system: E. coli BW25113; experiment: MIC, 2-fold broth dilution, E. coli BW25113; assay type: cell-based, Escherichia coli; conditions: E. coli BW25113; asterisk in column 1-10

Row | Molecule | MIC, μM 1-10
1 | 1,1′-((([1,1′-biphenyl]-4,4′-dicarbonyl)bis(azanediyl))bis(2-bromo-4,1-phenylene))bis(1-methylpiperidin-1-ium) [Example 88] | * (1-10)

same assay, conditions: E. coli BW25113; asterisk in column >50

Row | Molecule | MIC, μM >50
2 | 4,4′-(([1,1′-biphenyl]-4,4′-dicarbonyl)bis(azanediyl))bis(1,2-dimethylpyridin-1-ium) [Example 34] | * (>50)
3 | 4,4′-(([1,1′-biphenyl]-4,4′-dicarbonyl)bis(azanediyl))bis(3-hydroxy-N,N,N-trimethylbenzenaminium) [Example 57] | * (>50)

same assay, conditions: Escherichia coli; E. coli BW25113; asterisk in column 10-50; read-out: MIC, μM 10-50

Row | Molecule | MIC
4 | C[n+]1ccc(NC(=O)c2ccc(-c3ccc(C(=O)Nc4cc[n+](C)cc4)cc3)cc2)cc1 [Example 8] | 10 to 50 µM
5 | C[n+]1ccc(Oc2ccc(NC(=O)c3ccc(C(=O)Nc4ccc(Oc5cc[n+](C)cc5)cc4)cc3)cc2)cc1 [Example 13, 4,4′-(((terephthaloylbis(azanediyl))bis(4,1-phenylene))bis(oxy))bis(1-methylpyridin-1-ium)] | 10 to 50 µM
6 | C[N+](C)(C)c1ccc(NC(=O)c2ccc(-c3ccc(C(=O)Nc4ccc([N+](C)(C)C)cc4)cc3)cc2)cc1 [Example 23, 4,4′-(([1,1′-biphenyl]-4,4′-dicarbonyl)bis(azanediyl))bis(N,N,N-trimethylbenzenaminium)] | 10 to 50 µM
7 | Cc1cc(NC(=O)c2ccc(-c3ccc(C(=O)Nc4cc[n+](C)c(C)c4)cc3)cc2)cc[n+]1C [Example 29, 4,4′-(([1,1′-biphenyl]-4,4′-dicarbonyl)bis(azanediyl))bis(1,2-dimethylpyridin-1-ium)] | 10 to 50 µM

same assay, conditions: Escherichia coli; E. coli BW25113; asterisk in column >50; read-out: MIC, μM >50

Row | Molecule | MIC
8 | O=C(Nc1ccncc1)c1ccc(C(=O)Nc2ccncc2)cc1 [Example 1, N^1,N^4-di(pyridin-4-yl)terephthalamide] | > 50 µM
9 | C[n+]1ccc(NC(=O)c2ccc(C(=O)Nc3cc[n+](C)cc3)cc2)cc1 [Example 2, 4,4′-(terephthaloylbis(azanediyl))bis(1-methylpyridin-1-ium)] | > 50 µM
10 | O=C(Nc1ccncc1)c1ccc2cc(C(=O)Nc3ccncc3)ccc2c1 [Example 3, N^2,N^6-di(pyridin-4-yl)naphthalene-2,6-dicarboxamide] | > 50 µM
11 | C[n+]1ccc(NC(=O)c2ccc3cc(C(=O)Nc4cc[n+](C)cc4)ccc3c2)cc1 [Example 4, 4,4′-((naphthalene-2,6-dicarbonyl)bis(azanediyl))bis(1-methylpyridin-1-ium)] | > 50 µM
12 | O=C(Nc1ccncc1)[C@H]1CC[C@H](C(=O)Nc2ccncc2)CC1 [Example 5, (E)-N^1,N^4-di(pyridin-4-yl)cyclohexane-1,4-dicarboxamide] | > 50 µM
13 | C[n+]1ccc(NC(=O)[C@H]2CC[C@H](C(=O)Nc3cc[n+](C)cc3)CC2)cc1 [Example 6, 4,4′-((E)-cyclohexanedicarbonylbis(azanediyl))bis(1-methylpyridin-1-ium)] | > 50 µM
14 | O=C(Nc1ccncc1)c1ccc(-c2ccc(C(=O)Nc3ccncc3)cc2)cc1 [Example 7, N^4,N^4′-di(pyridin-4-yl)-[1,1′-biphenyl]-4,4′-dicarboxamide] | > 50 µM
15 | O=C(Nc1ccc(Nc2ccncc2)cc1)c1ccc(C(=O)Nc2ccc(Nc3ccncc3)cc2)cc1 [Example 9, N^1,N^4-bis(4-(pyridin-4-ylamino)phenyl)terephthalamide] | > 50 µM
16 | O=C(Nc1ccc(Nc2ccccn2)cc1)c1ccc(C(=O)Nc2ccc(Nc3ccccn3)cc2)cc1 [Example 10, N^1,N^4-bis(4-(pyridin-2-ylamino)phenyl)terephthalamide] | > 50 µM
17 | O=C(Nc1ccc(Oc2ccncc2)cc1)c1ccc(C(=O)Nc2ccc(Oc3ccncc3)cc2)cc1 [Example 11, N^1,N^4-bis(4-(pyridin-4-yloxy)phenyl)terephthalamide] | > 50 µM
18 | O=C(Nc1ccc(Cc2ccncc2)cc1)c1ccc(C(=O)Nc2ccc(Cc3ccncc3)cc2)cc1 [Example 12, N^1,N^4-bis(4-(pyridin-4-ylmethyl)phenyl)terephthalamide] | > 50 µM
19 | C[n+]1ccccc1Nc1ccc(NC(=O)c2ccc(C(=O)Nc3ccc(Nc4cccc[n+]4C)cc3)cc2)cc1 [Example 14, 2,2′-(((terephthaloylbis(azanediyl))bis(4,1-phenylene))bis(azanediyl))bis(1-methylpyridin-1-ium)] | > 50 µM
20 | O=C(Nc1ccc(Nc2ccncc2)cc1)c1ccc(-c2ccccc2)cc1 [Example 15, N-(4-(pyridin-4-ylamino)phenyl)-[1,1′-biphenyl]-4-carboxamide] | > 50 µM
21 | O=C(Nc1ccc(Nc2ccncc2)cc1)c1ccc(-c2ccc(C(=O)Nc3ccc(Nc4ccncc4)cc3)cc2)cc1 [Example 16, N^4,N^4′-bis(4-(pyridin-4-ylamino)phenyl)-[1,1′-biphenyl]-4,4′-dicarboxamide] | > 50 µM
22 | C[n+]1ccc(Nc2ccc(NC(=O)c3ccc(-c4ccccc4)cc3)cc2)cc1 [Example 18, 4-((4-([1,1′-biphenyl]-4-ylcarboxamido)phenyl)amino)-1-methylpyridin-1-ium] | > 50 µM
23 | O=C(Nc1ccc(Nc2ccncc2)cc1)c1ccc(C(=O)Nc2ccc(Nc3ccncc3)cc2)c(Cl)c1 [Example 19, 2-chloro-N^1,N^4-bis(4-(pyridin-4-ylamino)phenyl)terephthalamide] | > 50 µM
24 | O=C(Nc1ccc(Nc2ccncc2)cc1)c1ccc2cc(C(=O)Nc3ccc(Nc4ccncc4)cc3)ccc2c1 [Example 21, N^2,N^6-bis(4-(pyridin-4-ylamino)phenyl)naphthalene-2,6-dicarboxamide] | > 50 µM
25 | CN(C)c1ccc(NC(=O)c2ccc(-c3ccc(C(=O)Nc4ccc(N(C)C)cc4)cc3)cc2)cc1 [Example 22, N^4,N^4′-bis(4-(dimethylamino)phenyl)-[1,1′-biphenyl]-4,4′-dicarboxamide] | > 50 µM

Row | Molecule | MIC
26 | O=C(Nc1ccc(Nc2ccncc2)cc1)c1ccc(C(=O)Nc2ccc(Nc3ccncc3)cc2)c([N+](=O)[O-])c1 [Example 24, 2-nitro-N^1,N^4-bis(4-(pyridin-4-ylamino)phenyl)terephthalamide] | > 50 µM
27 | O=S(=O)(Nc1ccncc1)c1ccc(-c2ccc(S(=O)(=O)Nc3ccncc3)cc2)cc1 [Example 26, N^4,N^4′-di(pyridin-4-yl)-[1,1′-biphenyl]-4,4′-disulfonamide] | > 50 µM
28 | Cc1cc(NC(=O)c2ccc(-c3ccc(C(=O)Nc4ccnc(C)c4)cc3)cc2)ccn1 [Example 27, N^4,N^4′-bis(2-methylpyridin-4-yl)-[1,1′-biphenyl]-4,4′-dicarboxamide] | > 50 µM
29 | Cc1cnccc1NC(=O)c1ccc(-c2ccc(C(=O)Nc3ccncc3C)cc2)cc1 [Example 28, N^4,N^4′-bis(3-methylpyridin-4-yl)-[1,1′-biphenyl]-4,4′-dicarboxamide] | > 50 µM
30 | COc1cc(N(C)C)ccc1NC(=O)c1ccc(-c2ccc(C(=O)Nc3ccc(N(C)C)cc3OC)cc2)cc1 [Example 31, N^4,N^4′-bis(4-(dimethylamino)-2-methoxyphenyl)-[1,1′-biphenyl]-4,4′-dicarboxamide] | > 50 µM
31 | COc1cc([N+](C)(C)C)ccc1NC(=O)c1ccc(-c2ccc(C(=O)Nc3ccc([N+](C)(C)C)cc3OC)cc2)cc1 [Example 32] | > 50 µM
32 | COc1cc(NC(=O)c2ccc(-c3ccc(C(=O)Nc4ccc(N(C)C)c(OC)c4)cc3)cc2)ccc1N(C)C [Example 33, N^4,N^4′-bis(4-(dimethylamino)-3-methoxyphenyl)-[1,1′-biphenyl]-4,4′-dicarboxamide] | > 50 µM
33 | Cc1cc(NC(=O)c2ccc(-c3ccc(C(=O)Nc4ccc(N(C)C)c(C)c4)cc3)cc2)ccc1N(C)C [Example 36, N^4,N^4′-bis(4-(dimethylamino)-3-methylphenyl)-[1,1′-biphenyl]-4,4′-dicarboxamide] | > 50 µM
34 | Cc1cc(NC(=O)c2ccc(-c3ccc(C(=O)Nc4ccc([N+](C)(C)C)c(C)c4)cc3)cc2)ccc1[N+](C)(C)C [Example 37, 4,4′-(([1,1′-biphenyl]-4,4′-dicarbonyl)bis(azanediyl))bis(N,N,N,2-tetramethylbenzenaminium)] | > 50 µM
35 | CN(C)c1ccc(NC(=O)c2ccc(-c3ccc(C(=O)Nc4ccc(N(C)C)c(Cl)c4)cc3)cc2)cc1Cl [Example 38, N^4,N^4′-bis(3-chloro-4-(dimethylamino)phenyl)-[1,1′-biphenyl]-4,4′-dicarboxamide] | > 50 µM
36 | Cc1cc(C(=O)Nc2ccc(N(C)C)cc2)ccc1-c1ccc(C(=O)Nc2ccc(N(C)C)cc2)cc1 [Example 40, N^4,N^4′-bis(4-(dimethylamino)phenyl)-2-methyl-[1,1′-biphenyl]-4,4′-dicarboxamide] | > 50 µM
37 | O=C(Nc1ccc(Nc2ccncc2)cc1)c1ccc(C(=O)Nc2ccc(Nc3ccncc3)cc2)c(C(F)(F)F)c1 [Example 41, N^1,N^4-bis(4-(pyridin-4-ylamino)phenyl)-2-(trifluoromethyl)terephthalamide] | > 50 µM
38 | Cc1cc(C(=O)Nc2ccc([N+](C)(C)C)cc2)ccc1-c1ccc(C(=O)Nc2ccc([N+](C)(C)C)cc2)cc1 [Example 42, 4,4′-((2-methyl-[1,1′-biphenyl]-4,4′-dicarbonyl)bis(azanediyl))bis(N,N,N-trimethylbenzenaminium)] | > 50 µM
39 | O=C(Nc1ccc(Nc2ccncc2)cc1)c1ccc(C(=O)Nc2ccc(Nc3ccncc3)cc2)c(OC(F)(F)F)c1 [Example 43, N^1,N^4-bis(4-(pyridin-4-ylamino)phenyl)-2-(trifluoromethoxy)terephthalamide] | > 50 µM
40 | CN(C)C1CCC(NC(=O)c2ccc(-c3ccc(C(=O)NC4CCC(N(C)C)CC4)cc3)cc2)CC1 (stereo not drawn) [Example 46, N^4,N^4′-bis(4-(dimethylamino)cyclohexyl)-[1,1′-biphenyl]-4,4′-dicarboxamide] | > 50 µM
41 | O=C(Nc1ccc(Nc2ccncc2)cc1)c1ccc(Cc2ccc(C(=O)Nc3ccc(Nc4ccncc4)cc3)cc2)cc1 [Example 48] | > 50 µM
42 | CN(C)c1ccc(NC(=O)c2ccc(Cc3ccc(C(=O)Nc4ccc(N(C)C)cc4)cc3)cc2)cc1 [Example 49, 4,4′-methylenebis(N-(4-(dimethylamino)phenyl)benzamide)] | > 50 µM

From patent US20240116857A1 (St. Louis University, priority 2022, published 2024)
